In patent publication US5736529A, “Use of NAD-related compounds in the treatment of neural trauma to inhibit neurodegeneration” (priority 1996, dated 1998):
Like-named read-outs stand apart in the source and are kept apart here.

Tests used:
[1] = HPLC determination of tBuOOH in mice brains (pharmacokinetic profile); type: in vivo, mouse (male C57BL/6)
Protocol: Male C57BL/6 mice, 8 months old, were treated ICV with 110 mg/kg of tBuOOH. At various times, brains were removed, dissected and frozen on dry ice. Later the brains were homogenized in acetonitrile and centrifuged for 5 minutes at 12,000 g.

glutathione peroxidase = details: cited from earlier work
DNA in brain of mice = type: in vivo, mouse (8 month old C47BL/6); details: 21.9 mg/kg t-BuOOH ICV; 48 hours; 8 month old mice
Protocol: A gel electrophoresis was performed to investigate whether the DNA fragmentation that is observed at the end of 48 hours is due to apoptosis or not (FIG. 7). 8 month old C47BL/6 mice were treated with ICV with 21.9 mg/kg t-BuOOH 48 hours prior to removal of the brains. Brains were added to lysing buffer and centrifuged. The supernatants were collected as in the DNA fragmentation assay. The samples were extracted with an equal volume of phenol/chloroform/isoamyl alcohol (25:24:1). The DNA in the aqueous phase was precipitated by adding an equal volume of 100% ethanol and maintained at -20° C. overnight. DNA was collected by centrifugation at 12,000 g for 25 minutes, air dried and resuspended in TBE buffer (90 mM Tris, 90 mM boric acid and 2 mM EDTA, pH 8.0). Horizontal electrophoresis was performed for 2 hours at 100 volts in a 0.75% agarose gel with TBE buffer. The gel was stained with ethidium bromide and photographed by UV transillumination.

DNA = assay: EPR detection of radicals on mixing DNA and tBuOOH in the presence of DMPO
Text: Therefore, DNA fragmentation is produced following HO. and other radicals induced DNA damage. Necrotic degeneration probably occurs within the first few hours after tBuOOH administration.

[2] = test system: DNA in brain regions of C57BL/6 mice; details: for DNA fragmentation, low dose: 21.9 mg/kg
Protocol: 24 month old C57BL/6 mice were divided into 3 groups of 3 mice each. One group was the control. A second group of mice was treated ICV with 109.7 mg/kg t-BuOOH and then sacrificed 20 minutes later. A third group of mice were treated ICV with 21.9 mg/kg t-BuOOH and then sacrificed 48 hours later. […] The brains were removed from the treated mice and were sectioned into the following six regions: cortex, striatum, hippocampus, thalamus, midbrain and cerebellum. DNA damage has been expressed as a ratio of the damaged DNA to the total DNA per gram of tissue.
DNA fragmentation was assessed in […] samples of tissue from a brain region. A volume of 0.2 ml of ice cold lysing buffer (10 mM Tris-HCl, pH 7.5, 1 mM EDTA, and 0.2% Triton X-100) was added to each section, which was then centrifuged at 12,000 g for 25 minutes to separate the intact from the fragmented DNA. The supernatant (containing the fragmented DNA) was transferred to a separate tube. 0.2 ml of the lysing buffer was added to the pellet with sonication for 10 seconds. The amount of DNA in the supernatant and pellet fractions was determined by a fluorimetric method, using the dye Hoechst 33258. DNA damage is presented as the ratio of DNA in the supernatant to the total DNA in the pellet and supernatant per gram of tissue^17.
8 month old mice were divided into 4 groups (n=5 each). Group 1 was the control. Mice in group 2 were treated with 109.7 mg/kg t-BuOOH and then sacrificed 20 minutes later. […] The same procedures were performed as with the 24 month old mice.

apoptotic cells in brain = details: 21.9 mg/kg ICV; 48 hours; most abundant in thalamus and pons
Protocol: The purpose of the apoptosis staining was to identify individual cells that may have undergone apoptosis. Residues of digoxigenin nucleotide were added to the DNA by an enzyme terminal deoxynucleotidyl transferase (TdT) which catalyzes the addition of deoxyribonucleotide triphosphate to the 3'-OH end of single and double stranded DNA. Thus the targets for labeling are the numerous new 3'-OH DNA ends generated by DNA fragmentation, easily observable in morphologically identifiable nuclei and apoptotic bodies. The sections were then incubated with an antibody to digoxigenin residues. The antibody was coupled to peroxidase allowing visualization with 3,3'-diaminobenzidine. Other sections were stained with cresyl violet.
A dose of 21.9 mg/kg of tBuOOH was administered ICV to C57BL/6 mice. The mice were anesthetized 48 hours after the tBuOOH administration and perfused through the left cardiac ventricle with 0.175M sodium phosphate and 0.155M sodium chloride (pH 7.5, PBS), then with 4% formaldehyde and 0.2% glutaraldehyde in PBS for six minutes with each solution at room temperature. The brains were then removed from the cranium after 2 hours of fixation and sliced coronally into 50μ sections with a vibrating microtome.
In order to detect individual cells undergoing apoptosis, the In Situ Apoptosis Detection Kit, (Oncor, Gaithersburg, Md.) was used. […]

[3] = 8 month old mice, 109.7 mg/kg t-BuOOH, 20 min
[4] = 8 month old mice, 109.7 mg/kg t-BuOOH, 20 min, * p<0.05 vs control
[5] = 24 month old mice, 21.9 mg/kg t-BuOOH ICV, 48 hours, * p<0.05 vs control
[6] = 24 month old mice, 109.7 mg/kg t-BuOOH ICV, 20 min, * p<0.05 vs control

CC(C)(C)OO [tBuOOH, t-butylhydroperoxide]
toxin concentration relative to the initial concentration within 5 minutes ([1]; 110 mg/kg ICV, 8 month old mice): less than 50% | tBuOOH concentration curve in 2 month old mice ([1]; compared with 8 month old mice): virtually identical curve | concentration at 10 min ([1]; mouse, brain, icv or intrathecal, 110 mg/kg ICV, 8 month old mice): ~1000 µM | half-life ([1]; mouse, icv or intrathecal, 110 mg/kg ICV, depending on the brain region): 4 to 20 min | clearance of tBuOOH from the brain ([1]; striatum of 8 month old mice, 110 mg/kg ICV): very rapid clearance of tBuOOH from the brain in the initial period, followed by a slower clearance | detoxification by glutathione peroxidase (glutathione peroxidase): detoxified by glutathione peroxidase | DNA fragments on gel electrophoresis (DNA in brain of mice): Oligosomal sized DNA fragments were observed along with a smear of fragmentation | radicals produced by mixing DNA and tBuOOH (DNA): produces HO. and other radicals | DNA fragmentation, low dose ([2]; 8 month old mice): significantly higher DNA fragmentation values were seen only in the cerebellum | DNA fragmentation, low dose ([2]; 24 month old mice): significant increases in DNA fragmentation were observed in almost all brain regions (except the striatum) | DNA fragmentation in the cortex or hippocampus ([2]; 109.7 mg/kg, 8 month old mice): no significant increase in DNA fragmentation | DNA fragmentation in many brain regions ([2]; 109.7 mg/kg, 24 and 8 month old mice): Significant DNA fragmentation | DNA fragmentation, cortex [2, 3]: 0.83 ± 0.14 per gram of tissue | DNA fragmentation, hippo [2, 3]: 0.768 ± 0.16 per gram of tissue | DNA fragmentation, cerebellum [2, 4]: 1.16 ± 0.15 per gram of tissue | DNA fragmentation, midbrain [2, 4]: 2.37 ± 0.43 per gram of tissue | DNA fragmentation, striatum [2, 4]: 2.33 ± 0.46 per gram of tissue | DNA fragmentation, thala [2, 4]: 2.65 ± 0.88 per gram of tissue | DNA fragmentation in the cerebellums (FIG. 5) ([2]; 8 month old mice, p<0.05): Statistically significantly different from control values and tBuOOH with nicotinamide | DNA fragmentation, striatum ([2]; 24 month old mice, 21.9 mg/kg t-BuOOH ICV, 48 hours): 1.94 ± 0.31 per gram of tissue | DNA fragmentation, cerebellum [2, 5]: 1.71 ± 0.45 per gram of tissue | DNA fragmentation, cortex [2, 5]: 1.55 ± 0.19 per gram of tissue | DNA fragmentation, hippo [2, 5]: 1.43 ± 0.23 per gram of tissue | DNA fragmentation, midbrain [2, 5]: 2.04 ± 0.53 per gram of tissue | DNA fragmentation, thala [2, 5]: 2.13 ± 0.31 per gram of tissue | DNA fragmentation, cerebellum [2, 6]: 1.84 ± 0.45 per gram of tissue | DNA fragmentation, cortex [2, 6]: 1.73 ± 0.23 per gram of tissue | DNA fragmentation, hippo [2, 6]: 1.44 ± 0.20 per gram of tissue | DNA fragmentation, midbrain [2, 6]: 2.77 ± 0.65 per gram of tissue | DNA fragmentation, striatum [2, 6]: 2.46 ± 0.33 per gram of tissue | DNA fragmentation, thala [2, 6]: 2.52 ± 0.43 per gram of tissue | apoptotic cells in the brain (apoptotic cells in brain): Apoptotic cells were found in many brain regions, but were most abundant in the thalamus and pons
